This is an account of results in patent US7517851B2, “Chlamydia oligosaccharides” (priority 1996, dated 2009).

This experiment concerns Chlamydia trachomatis L2/434/Bu. The experiment is classed as cell-based. Conditions: HeLa cells, maximum concentration (20 μg) tested.

Like-named read-outs stand apart in the source and are kept apart here.

For oligomannose 9, the “% INHIBITION (infectivity inhibition)” value turned out to be 64% (first of two separate sets of experiments) and 62% (second of two separate sets of experiments).
